Experiments:
[1] = test system: KRas-mediated phosphorylation of ERK in AsPC-1 cells; assay: Inhibition of KRas-mediated phosphorylation of ERK (Cisbio HTRF pERK), AsPC-1 cells; format: cell-based; settings: Homo sapiens, ASPC1, AsPC-1 cells; HTRF pERK
In short: (§1)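 Following a 3-hr exposure of cells to serially diluted compound (from 10 uM, 3-fold, 10 doses), cold lysis for 40 mins preceded a 2-hr room-temperature HTRF immunoassay for phosphorylated ERK.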

[2] = test system: KRas-mediated phosphorylation of ERK in MKN1 cells; assay: Inhibition of KRas-mediated phosphorylation of ERK (Cisbio HTRF pERK), MKN1 cells; format: cell-based; settings: Homo sapiens, MKN-1
Procedure: (§2) Inhibition of KRas Phosphorylation of ERK (HTRF) by Exemplary Compounds of Formula (I)
(§3) Cisbio HTRF Advanced PERK Assay Catalog #64AERPEH
(§4) Day 1: Seed 6,000 cells/well-25 μl/well in 384-well white solid bottom plate; RPM1_10% FBS. Incubate overnight at 37° C./5% CO2.
(§5) Incubate for 4 hours at room temperature covered.
(§6) Read HTRF using ClarioStar

KRas^G12V = target: T1, KRas^G12V (Homo sapiens, UniProt P01116, G12V); assay: KRas binding assay (TR-FRET tracer displacement), KRas G12V
T1 construct: Biotinylated KRas (corresponding to amino acids 1-169, produced at Accelegan Inc.); biotin (biotinylated); purchased Accelegan Inc
T1 sequence (P01116 1-169 isoform P01116-2 G12V): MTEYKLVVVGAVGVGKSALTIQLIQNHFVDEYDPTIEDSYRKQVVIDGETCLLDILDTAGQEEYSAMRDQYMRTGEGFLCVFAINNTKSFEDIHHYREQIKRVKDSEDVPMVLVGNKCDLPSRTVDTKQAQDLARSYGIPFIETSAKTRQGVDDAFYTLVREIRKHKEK

KRas^G12R = target: T2, KRas^G12R (Homo sapiens, UniProt P01116, G12R); assay: KRas binding assay (TR-FRET tracer displacement), KRas G12R
T2 construct: Biotinylated KRas (corresponding to amino acids 1-169, produced at Accelegan Inc.); biotin (biotinylated); purchased Accelegan Inc
T2 sequence (P01116 1-169 isoform P01116-2 G12R): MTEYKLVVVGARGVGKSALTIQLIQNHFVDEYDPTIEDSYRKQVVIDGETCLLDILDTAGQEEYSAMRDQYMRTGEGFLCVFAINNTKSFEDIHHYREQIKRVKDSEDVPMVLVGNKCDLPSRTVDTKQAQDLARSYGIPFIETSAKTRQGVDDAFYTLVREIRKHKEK

KRas^G12D = target: T3, KRas^G12D (Homo sapiens, UniProt P01116, G12D); assay: KRas binding assay (TR-FRET tracer displacement), KRas G12D
T3 construct: Biotinylated KRas (corresponding to amino acids 1-169, produced at Accelegan Inc.); biotin (biotinylated); purchased Accelegan Inc
T3 sequence (P01116 1-169 isoform P01116-2 G12D): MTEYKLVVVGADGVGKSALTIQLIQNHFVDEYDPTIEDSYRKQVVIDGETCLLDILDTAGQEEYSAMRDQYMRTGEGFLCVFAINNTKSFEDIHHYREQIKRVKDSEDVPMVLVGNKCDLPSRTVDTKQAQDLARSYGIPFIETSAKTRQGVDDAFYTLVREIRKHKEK

[3] = test system: KRas-mediated phosphorylation of ERK in H727 cells; assay: Inhibition of KRas-mediated phosphorylation of ERK (Cisbio HTRF pERK), H727 cells; format: cell-based; settings: Homo sapiens, NCI-H727, H727 cells; HTRF pERK
In short: as §1

[4] = test system: KRas-mediated phosphorylation of ERK in PSN1 cells; assay: Inhibition of KRas-mediated phosphorylation of ERK (Cisbio HTRF pERK), PSN1 cells; format: cell-based; settings: Homo sapiens
Procedure: as §2, §3, §4, §5, §6

Structure (SMILES)	IC50 [1] [nM]	IC50 [2] [nM]	IC50 (KRas^G12V) [nM]	IC50 (KRas^G12R) [nM]	IC50 (KRas^G12D) [nM]	IC50 [3] [nM]	IC50 [4] [nM]
CCc1c(F)ccc2cc(O)cc(-c3ncc4c(NS(=O)(=O)C[C@H]5CNCCO5)nc(OC[C@@]56CCCN5C[C@H](F)C6)nc4c3F)c12 [Example 637, N-(7-(8-ethyl-7-fluoro-3-hydroxynaphthalen-1-yl)-8-fluoro-2-(((2R,7aS)-2-fluorotetrahydro-1H-pyrrolizin-7a(5H)-yl)methoxy)pyrido[4,3-d]pyrimidin-4-yl)-1-((R)-morpholin-2-yl)methanesulfonamide]	> 10000	> 10000	3790	2250	1220	> 10000	> 10000
CCc1c(F)ccc2cc(O)cc(-c3ncc4c(NCc5cnn(C(=O)N(C)C)c5N)nc(OC[C@@]56CCCN5C[C@H](F)C6)nc4c3F)c12 [Example 640, 5-amino-4-(((7-(8-ethyl-7-fluoro-3-hydroxynaphthalen-1-yl)-8-fluoro-2-(((2R,7aS)-2-fluorohexahydro-1H-pyrrolizin-7a-yl)methoxy)pyrido[4,3-d]pyrimidin-4-yl)amino)methyl)-N,N-dimethyl-1H-pyrazole-1-carboxamide]	5130	208	16	17	83	889	> 10000
CCc1c(F)ccc2cc(O)cc(-c3ncc4c(N[C@H](C)c5cc(C(=O)N(C)C)nn5C)nc(OC[C@@]56CCCN5C[C@H](F)C6)nc4c3F)c12 [Example 651, 5-((R)-1-((7-(8-ethyl-7-fluoro-3-hydroxynaphthalen-1-yl)-8-fluoro-2-(((2R,7aS)-2-fluorohexahydro-1H-pyrrolizin-7a-yl)methoxy)pyrido[4,3-d]pyrimidin-4-yl)amino)ethyl)-N,N,1-trimethyl-1H-pyrazole-3-carboxamide]	1460	546	10	15	30	1790	> 10000
CN(C)C(=O)c1cc2n(n1)CCCN(c1nc(OCC34CCCN3CCC4)nc3c(F)c(-c4cc(O)cc(Cl)c4C4CC4)ncc13)C2 [Example 744, 5-(7-(3-chloro-2-cyclopropyl-5-hydroxyphenyl)-8-fluoro-2-((hexahydro-1H-pyrrolizin-7a-yl)methoxy)pyrido[4,3-d]pyrimidin-4-yl)-N,N-dimethyl-5,6,7,8-tetrahydro-4H-pyrazolo[1,5-a][1,4]diazepine-2-carboxamide]	2730	> 10000	< 2	2	< 2	5730	> 10000
Cc1cccc2cc3[nH]ncc3c(-c3ncc4c(N5CCCC6(CNS(=O)(=O)N6)C5)nc(OCC56CCCN5CCC6)nc4c3F)c12 (centres unmarked) [Example 808, 7-(8-fluoro-7-(5-methyl-1H-benzo[f]indazol-4-yl)-2-((tetrahydro-1H-pyrrolizin-7a(5H)-yl)methoxy)pyrido[4,3-d]pyrimidin-4-yl)-2-thia-1,3,7-triazaspiro[4.5]decane 2,2-dioxide]	3070	653	< 2	< 2	< 2	1690	> 10000
CCc1c(F)ccc2cc(O)cc(-c3ncc4c(NCc5cc(C(=O)N(C)C)nn5C5COC5)nc(OC[C@@]56CCCN5C[C@H](F)C6)nc4c3F)c12 [Example 810, 5-(((7-(8-ethyl-7-fluoro-3-hydroxynaphthalen-1-yl)-8-fluoro-2-(((2R,7aS)-2-fluorotetrahydro-1H-pyrrolizin-7a(5H)-yl)methoxy)pyrido[4,3-d]pyrimidin-4-yl)amino)methyl)-N,N-dimethyl-1-(oxetan-3-yl)-1H-pyrazole-3-carboxamide]	> 10000	110	4	4	13	4980	> 10000

Now from value to compound:

IC50 [1] [nM]	IC50 [2] [nM]	IC50 (KRas^G12V) [nM]	IC50 (KRas^G12R) [nM]	IC50 (KRas^G12D) [nM]	IC50 [3] [nM]	IC50 [4] [nM]	Structure (SMILES)
> 10000	> 10000	88	267	1250	> 10000	> 10000	CCc1c(F)ccc2cc(O)cc(-c3ncc4c(N5CCC(c6ccc(=O)[nH]n6)C5)nc(OC[C@@]56CCCN5C[C@H](F)C6)nc4c3F)c12 (stereo partly drawn) [Example 608, 6-(1-(7-(8-ethyl-7-fluoro-3-hydroxynaphthalen-1-yl)-8-fluoro-2-(((2R,7aS)-2-fluorotetrahydro-1H-pyrrolizin-7a(5H)-yl)methoxy)pyrido[4,3-d]pyrimidin-4-yl)pyrrolidin-3-yl)pyridazin-3 (2H)-one]
1390	92	< 2	< 2	< 2	880	> 10000	CCc1c(F)ccc2cc(O)cc(-c3ncc4c(NCC5(C)CNS(=O)(=O)N5)nc(OC[C@@]56CCCN5C[C@H](F)C6)nc4c3F)c12 (stereo partly drawn) [Example 609, 3-(((7-(8-ethyl-7-fluoro-3-hydroxynaphthalen-1-yl)-8-fluoro-2-(((2R,7aS)-2-fluorohexahydro-1H-pyrrolizin-7a-yl)methoxy)pyrido[4,3-d]pyrimidin-4-yl)amino)methyl)-3-methyl-1,2,5-thiadiazolidine 1,1-dioxide]
7210	1530	222	421	1990	> 10000	> 10000	CCc1c(F)ccc2cc(O)cc(-c3ncc4c(N5CCC(N6C(=O)CCC6=O)C5)nc(OC[C@@]56CCCN5C[C@H](F)C6)nc4c3F)c12 (stereo partly drawn) [Example 615, 1′-(7-(8-ethyl-7-fluoro-3-hydroxynaphthalen-1-yl)-8-fluoro-2-(((2R,7aS)-2-fluorotetrahydro-1H-pyrrolizin-7a(5H)-yl)methoxy)pyrido[4,3-d]pyrimidin-4-yl)-[1,3′-bipyrrolidine]-2,5-dione]
> 10000	> 10000	2820	6610	8850	> 10000	> 10000	CCc1c(F)ccc2cc(O)cc(-c3ncc4c(N5CCCCC(S(N)(=O)=O)C5)nc(OC[C@@]56CCCN5C[C@H](F)C6)nc4c3F)c12 (stereo partly drawn) [Example 633, 1-(7-(8-ethyl-7-fluoro-3-hydroxynaphthalen-1-yl)-8-fluoro-2-(((2R,7aS)-2-fluorohexahydro-1H-pyrrolizin-7a-yl)methoxy)pyrido[4,3-d]pyrimidin-4-yl)azepane-3-sulfonamide]
> 10000	2980	262	839	2240	6210	> 10000	CCc1c(F)ccc2cc(O)cc(-c3ncc4c(N5CCC[C@H](c6ccnn6C)CC5)nc(OC[C@@]56CCCN5C[C@H](F)C6)nc4c3F)c12 [Example 634, 5-ethyl-6-fluoro-4-(8-fluoro-2-(((2R,7aS)-2-fluorotetrahydro-1H-pyrrolizin-7a(5H)-yl)methoxy)-4-((S)-4-(1-methyl-1H-pyrazol-5-yl)azepan-1-yl)pyrido[4,3-d]pyrimidin-7-yl)naphthalen-2-ol]
> 10000	2870	235	195	864	> 10000	> 10000	CCc1c(F)ccc2cc(O)cc(-c3ncc4c(N5CCCC6(C[C@H](O)[C@H](O)CO6)C5)nc(OC[C@@]56CCCN5C[C@H](F)C6)nc4c3F)c12 (stereo partly drawn) [Example 642, (3R,4S)-8-(7-(8-ethyl-7-fluoro-3-hydroxynaphthalen-1-yl)-8-fluoro-2-(((2R,7aS)-2-fluorohexahydro-1H-pyrrolizin-7a-yl)methoxy)pyrido[4,3-d]pyrimidin-4-yl)-1-oxa-8-azaspiro[5.5]undecane-3,4-diol]
1900	943	6	10	5	2380	3240	CCc1c(F)ccc2cc(O)cc(-c3ncc4c(N5CCCC6(CCNS(=O)(=O)N6)C5)nc(OC[C@@]56CCCN5C[C@H](F)C6)nc4c3F)c12 (stereo partly drawn) [Example 656, 8-(7-(8-ethyl-7-fluoro-3-hydroxynaphthalen-1-yl)-8-fluoro-2-(((2R,7aS)-2-fluorotetrahydro-1H-pyrrolizin-7a(5H)-yl)methoxy)pyrido[4,3-d]pyrimidin-4-yl)-2-thia-1,3,8-triazaspiro[5.5]undecane 2,2-dioxide]
32	3	3	< 2	< 2	14	125	O=S1(=O)CCC2(CCCN(c3nc(OC[C@@]45CCCN4C[C@H](F)C5)nc4c(F)c(-c5cc(O)cc6ccc(F)c(Cl)c56)ncc34)C2)N1 (stereo partly drawn) [Example 807, 7-(7-(8-chloro-7-fluoro-3-hydroxynaphthalen-1-yl)-8-fluoro-2-(((2R,7aS)-2-fluorotetrahydro-1H-pyrrolizin-7a(5H)-yl)methoxy)pyrido[4,3-d]pyrimidin-4-yl)-2-thia-1,7-diazaspiro[4.5]decane 2,2-dioxide]
